The source made the active and inactive calls.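 Rule for the calls: active = fitted curve drops below -35% activity at a concentration within twice the top valid tested dose; inconclusive = no clear call, values can overlap the other calls; inactive = signal rising instead of falling, among other cases.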
Experiment: HepG2 hepatoma cell cytotoxicity, dose response, cytotoxicity control, CellTiter-Glo luminescence, cherry-pick, set 3 (AID 720589)
Settings: HepG2 viability, ATP luminescence (CellTiter-Glo), 72 h, hits give low values
[1] = at 2.85 µM, 0% = untreated, negative = ATP loss
[2] = at 26 µM, 0% = untreated, negative = ATP loss
[3] = at 0.1 µM, 0% = untreated, negative = ATP loss
[4] = at 0.035 µM, 0% = untreated, negative = ATP loss
[5] = at 0.011 µM, 0% = untreated, negative = ATP loss
[6] = at 0.9 µM, 0% = untreated, negative = ATP loss
[7] = at 0.3 µM, 0% = untreated, negative = ATP loss
[8] = at 8 µM, 0% = untreated, negative = ATP loss

Cc1ccc2c(c1)C(=O)N1[C@H]3c4cc(Br)ccc4OC[C@@H]3[C@H](c3ccccc3)[C@]1(C)C(=O)N2
max activity [1]: -19.3% (inactive)

CCCCCCCCn1c2c(c(=N)c3c1CCC3)CCCC2
max activity [2]: -46.7% (inactive)

COC(=O)C[C@@H]1CC[C@@H]2[C@@H](COc3ccc(NC(=O)Nc4cccc(C#N)c4)cc3C(=O)N2C)O1
max activity [3]: -8.7% (inactive)

COC(=O)[C@H]1[C@H](CO)[C@H]2Cn3c(ccc(-c4ccccc4F)c3=O)[C@@H]1N2CC1CCCC1
max activity (at 0.9 µM): -23.4% (inactive)

CC(NC(=O)c1ccco1)c1nc(-c2ccc(C(C)(C)C)cc2)no1 (centres undefined)
max activity [2]: -24.1% (inactive)

O=C1C(=O)N(Cc2cccs2)c2ccccc21
max activity [4]: -28.1% (inactive)

CCc1ccc(N2C=C(C(=O)OC)C(c3ccc(OC)cc3)C(C#N)=C2N)cc1 (centres undefined)
max activity [3]: -15.5% (inactive)

C/C=C/c1ccc([C@H]2[C@@H](CO)N3C(=O)CN(S(=O)(=O)c4cccc(F)c4)C[C@@H]23)cc1
max activity [5]: 26.3% (inactive)

C/C(=N\Nc1cccc2cccnc12)c1ccccn1
max activity [3]: -36.8% (inactive)

Cc1[nH]c(=S)sc1Cc1ccc(Cl)c(Cl)c1
max activity [3]: -20.8% (inactive)

CC(C)(C)c1ccc(Oc2ccc(N)cn2)cc1
max activity [6]: 14% (inactive)

C[C@@H]1CN([C@@H](C)CO)C(=O)c2cccc(NC(=O)Nc3ccccc3)c2O[C@@H]1CN(C)Cc1ccc(-c2ccccc2)cc1
max activity [6]: -17% (inactive)

C[C@H](CO)N1C[C@H](C)[C@@H](CN(C)Cc2ccc(C(F)(F)F)cc2)OCCCC[C@H](C)Oc2ccc(NS(=O)(=O)c3ccc(F)cc3)cc2C1=O
max activity [7]: 27.5% (inactive)

COc1ccc(C=C2CCc3ccccc3C2=O)cc1
max activity [2]: -23.4% (inactive)

COC(=O)C[C@@H]1CC[C@@H]2[C@H](COc3ccc(NC(=O)c4ccccc4)cc3C(=O)N2C)O1
max activity [8]: -19.1% (inactive)

O=C(CCCCl)Nc1nc(-c2ccc3c(c2)OCCO3)cs1
max activity [5]: -25% (inactive)

CC(=O)N1CCCC(c2cc(C(=O)Nc3ccccc3)no2)C1 (centres undefined)
max activity [5]: 15.4% (inactive)

COc1ccc(OC)c(/C=C/c2ccnc3ccccc23)c1
max activity [8]: -41.5% (inactive)

CC(C)c1ccc(OCc2cccc(C(=O)N/N=C/c3cccnc3)c2)cc1
max activity [5]: 8.88% (inactive)

COc1cc(-c2coc3c(C(=O)NCc4ccc(C(F)(F)F)cc4)cccc23)ccc1O
max activity [1]: -25.6% (inactive)

COC(=O)C(CC#Cc1ccc2c(c1)[C@]1(C(=O)N2)[C@H](c2ccc(OCCO)cc2)N2[C@H](c3ccccc3)[C@H](c3ccccc3)OC(=O)[C@H]2[C@@H]1C(=O)N1CCN(c2ncccn2)CC1)C(=O)OC
max activity [3]: -11.5% (inactive)

COc1cc(/C=N/NS(=O)(=O)c2ccc3ccccc3c2)ccc1OCc1ccc(C(=O)O)cc1
max activity [5]: 33.7% (inactive)

CCOc1ccccc1CNC(=O)c1ccc(Sc2ccc(Cl)cc2)c(NC(C)=O)c1
max activity [7]: -29.5% (inactive)

O=C(CN1C(=O)c2ccccc2S1(=O)=O)c1ccc(F)cc1
max activity [2]: 20.9% (inactive)

C/C(=N\N(c1ccccc1)c1ccccc1)c1ccco1
max activity [5]: 17.6% (inactive)

COc1ccc2nc(-c3ccc(F)cc3)sc2c1
max activity [7]: -47.1% (inactive)

CCCCNC(=O)C(c1ccc(OCC(=O)OC)c(C(=O)OC)c1)N(CCOC)C(=O)CCCCCN1C(=O)NC(c2ccc(-c3ccccc3)cc2)C(C(=O)OCc2ccccc2)=C1C (centres undefined)
max activity [5]: 32.5% (inactive)

CCC1=Nc2cc(C(=O)NCC3CCCO3)ccc2Sc2ccc(Br)cc21 (centres undefined)
max activity [2]: -32.3% (inactive)

Cc1ccc(/C=C/C(=O)N2CCN(S(=O)(=O)c3c(C)c(C)cc(C)c3C)CC2)o1
max activity [2]: -14.8% (inactive)

Cc1ccc(S(=O)(=O)N(C)C[C@@H]2Oc3ccc(NC(=O)CCCCCC(=O)Nc4ccccc4N)cc3CC(=O)N([C@@H](C)CO)C[C@@H]2C)cc1
max activity (at 0.8 µM, 0% = untreated, negative = ATP loss): -38.7% (inactive)

CCCCN=C(NNc1ccc(Br)cc1)C(=O)OCC
max activity [3]: -31% (inactive)

O=C1Nc2ccccc2C1=Nc1ccc(Br)cc1
max activity [3]: -11.9% (inactive)

COC(=O)C[C@@H]1CC[C@@H]2[C@H](COc3ccc(NC(=O)c4cc(C)on4)cc3C(=O)N2C)O1
max activity [7]: -20% (inactive)

COC(=O)C[C@@H]1CC[C@@H]2[C@H](COc3ccc(NC(=O)c4cccc(Cl)c4)cc3C(=O)N2C)O1
max activity (at 2.6 µM, 0% = untreated, negative = ATP loss): -17.7% (inactive)

COC(=O)C[C@@H]1CC[C@@H]2[C@H](COc3ccc(NC(=O)Nc4cccc(Cl)c4)cc3C(=O)N2C)O1
max activity [6]: -25.8% (inactive)

O=c1[nH]c(=O)n([C@H]2C[C@H](O)[C@@H](CO)O2)cc1F
max activity [1]: -50.3% (inactive)

Cc1ccc(N=C2NC(=O)/C(=C\c3cccs3)S2)cc1C
max activity [5]: -17.8% (inactive)

COc1ccc(Cl)cc1S(=O)(=O)Nc1ccc2c(c1)n(C)c(=O)n2C
max activity [2]: -15.6% (inactive)

COC(=O)C[C@H]1CC[C@H]2[C@@H](COc3ccc(NC(=O)Nc4cccc(Cl)c4)cc3C(=O)N2C)O1
max activity [7]: -27.3% (inactive)

O=C(O)c1cccc(N/N=C/c2ccc(OC(F)(F)F)cc2)c1
max activity [1]: -28.9% (inactive)

CCCCCCCCCCCCCCCCCCNc1ccn(C2OC(COP(=O)(O)OCC3OC(n4cc(F)c(=O)[nH]c4=O)CC3O)C(O)C2O)c(=O)n1 (centres undefined)
max activity [1]: -36% (inactive)

O=C(NCCc1ccccc1)c1ccccc1NC(=O)C1CCCO1 (centres undefined)
max activity [3]: -10.9% (inactive)

C[C@@H]1CN([C@H](C)CO)C(=O)c2cc(NS(=O)(=O)c3ccc(Cl)cc3)ccc2O[C@@H]1CN(C)Cc1ccc(Cl)c(Cl)c1
max activity [7]: -36.6% (inactive)

CCCNC(=O)N1[C@H](C#N)[C@H](c2ccc(C#Cc3cccc(F)c3)cc2)[C@H]1CO
max activity (at 23.5 µM, 0% = untreated, negative = ATP loss): 22.8% (inactive)

CCCC[C@@H]1Cc2[nH][nH]c(=O)c2[C@H](c2ccc3ccccc3c2)O1
max activity [2]: 22% (inactive)

O=C(O)c1ccccc1C(=O)Nc1ccc(Oc2ccc3ccccc3c2)cc1
max activity [1]: -28.2% (inactive)

Oc1c(Cl)cc(Cl)c2cccnc12
max activity [2]: -31.8% (inactive)

CC(C)CC(NC(=O)c1cccs1)c1nnc(SCc2ccc(Cl)c(Cl)c2)n1C (centres undefined)
max activity [7]: -28.1% (inactive)

CCC(C)Cn1c(O)cc2nn(-c3nc4ccccc4s3)c(=O)c-2c1C (centres undefined)
max activity [3]: -32.2% (inactive)

N#C[C@@H]1[C@H](c2ccc(C#Cc3cccc(F)c3)cc2)[C@@H](CO)N1C(=O)C1CCCC1
max activity (at 0.012 µM, 0% = untreated, negative = ATP loss): 24% (inactive)

Cc1ccc(N2C(=O)c3cccc4c(N)ccc(c34)C2=O)c2cccnc12
max activity [2]: -20.7% (inactive)

COc1ccc(S(=O)(=O)N2CC[C@@H]3[C@H](CO)Nc4ccc(-c5ccc(C#N)cc5)cc4[C@@H]32)cc1
max activity [4]: -30.4% (inactive)

COc1ccc(CCC(C)NCC2CCCCC2)cc1 (centres undefined)
max activity [2]: -15.7% (inactive)

CCOc1ccc(-c2cc(CCCC(=O)N3CCN(c4ccc(OC)cc4)CC3)no2)cc1
max activity [5]: -25.4% (inactive)

O=C1C(=O)N(CCS(=O)(=O)c2ccccc2)c2ccc(Cl)cc21
max activity [6]: -12.3% (inactive)

C[C@H]1CN([C@@H](C)CO)S(=O)(=O)c2ccc(C#Cc3ccncc3)cc2O[C@@H]1CN(C)S(=O)(=O)c1ccccc1
max activity [7]: -9.66% (inactive)

C[C@]12CC[C@H](O)C[C@H]1CC[C@@H]1C2CC[C@]2(C)[C@@H](C3=CC(=O)OC3)[C@@H](O)C[C@]12O (some centres undefined)
max activity (at 2.85 µM): -53.6% (inactive)

Cc1ccc(C(C(=O)NCc2ccco2)N(C(=O)CNC(=O)c2cccs2)c2c(C)cc(C)cc2C)cc1 (centres undefined)
max activity [3]: -27% (inactive)

CCCNC(=O)N1[C@H](C#N)[C@H](c2ccc(C#Cc3ccc(F)cc3)cc2)[C@H]1CO
max activity [3]: -28.6% (inactive)

From PubChem BioAssay AID720589 (Broad Institute, 2013)
